Measurements as given in US20250171438A1 (Agios Pharmaceuticals, Inc., priority 2022, published 2025).

Molecular target: T1, human PAH with the R408W mutation (Homo sapiens, UniProt P00439, R408W)
T1 construct: expressed in transfected cells
T1 sequence (P00439 1-452 R408W): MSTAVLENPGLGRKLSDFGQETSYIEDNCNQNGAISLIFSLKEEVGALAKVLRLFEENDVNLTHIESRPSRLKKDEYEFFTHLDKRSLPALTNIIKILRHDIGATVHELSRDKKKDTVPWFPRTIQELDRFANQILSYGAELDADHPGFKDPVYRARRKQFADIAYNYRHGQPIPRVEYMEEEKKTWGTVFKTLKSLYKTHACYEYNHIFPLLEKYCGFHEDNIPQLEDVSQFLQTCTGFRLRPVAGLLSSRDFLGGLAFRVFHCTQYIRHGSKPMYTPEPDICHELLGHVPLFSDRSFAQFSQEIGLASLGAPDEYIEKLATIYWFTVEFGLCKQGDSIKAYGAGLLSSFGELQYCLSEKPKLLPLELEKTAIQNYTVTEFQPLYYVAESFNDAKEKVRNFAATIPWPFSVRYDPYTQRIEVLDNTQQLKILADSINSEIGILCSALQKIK
Experiment: Cell Based Phenylalanine Flux Assay
Details: A375 cells expressing human R408W PAH; 24 hrs compound incubation; 13C-Tyrosine by LC-MS; average where tested multiple times; read-out: AC50

SMILES | AC50 [µM]
O=C(c1cnn2c(Br)cccc12)N1CCc2[nH]cnc2[C@@H]1c1nc2c(F)cccc2s1 [Example 1240, (R)-(7-bromopyrazolo[1,5-a]pyridin-3-yl)(4-(4-fluorobenzo[d]thiazol-2-yl)-6,7-dihydro-1H-imidazo[4,5-c]pyridin-5(4H)-yl)methanone] | 1 to 5
O=C(c1cnn2ccccc12)N1CCc2[nH]cnc2[C@H]1c1nc2c(Br)cccc2s1 [Example 1241, (S)-(4-(4-bromobenzo[d]thiazol-2-yl)-6,7-dihydro-1H-imidazo[4,5-c]pyridine-5(4H)-yl)(pyrazolo [1,5-a]pyridin-3-yl)methanone] | 0.5 to 1
O=C(c1cnn2ccccc12)N1CCc2[nH]cnc2[C@@H]1c1nc2c(Br)cccc2s1 [Example 1242, (R)-(4-(4-bromobenzo[d]thiazol-2-yl)-6,7-dihydro-1H-imidazo[4,5-c]pyridine-5(4H)-yl)(pyrazolo [1,5-a]pyridin-3-yl) methanone] | > 5
CCc1ccc2c(C(=O)N3CCc4[nH]cnc4[C@H]3c3nc4ccccc4s3)cnn2c1 [Example 1243] | 1 to 5
CCc1ccc2c(C(=O)N3CCc4[nH]cnc4[C@@H]3c3nc4ccccc4s3)cnn2c1 [Example 1244, (R)-(4-(benzo[d]thiazol-2-yl)-6,7-dihydro-1H-imidazo[4,5-c]pyridin-5(4H)-yl)(6-ethylpyrazolo[1,5-a]pyridin-3-yl)methanone] | > 5
O=C(CC1CC(F)C1)N1CCc2[nH]cnc2[C@H]1c1nc2ccccc2s1 (some centres unmarked) [Example 1245] | < 0.5
O=C(CC1CC(F)C1)N1CCc2[nH]cnc2[C@@H]1c1nc2ccccc2s1 (stereo partly drawn) [Example 1246, (R)-1-(4-(benzo[d]thiazol-2-yl)-6,7-dihydro-1H-imidazo[4,5-c]pyridin-5(4H)-yl)-2-(3-fluorocyclobutyl)ethanone] | 1 to 5
O=C(c1cnco1)N1CCc2[nH]cnc2[C@H]1c1nc2cccc(F)c2s1 [Example 1247, (S)-(4-(7-fluorobenzo[d]thiazol-2-yl)-6,7-dihydro-1H-imidazo[4,5-c]pyridin-5(4H)-yl)(oxazol-5-yl)methanone] | 1 to 5
O=C(c1cnco1)N1CCc2[nH]cnc2[C@@H]1c1nc2cccc(F)c2s1 [Example 1248, (R)-(4-(7-fluorobenzo[d]thiazol-2-yl)-6,7-dihydro-1H-imidazo[4,5-c]pyridin-5(4H)-yl)(oxazol-5-yl)methanone] | 1 to 5
N#Cc1ccn2ncc(C(=O)N3CCc4[nH]cnc4[C@H]3c3nc4c(F)cccc4s3)c2c1 [Example 1249, (S)-3-(4-(4-fluorobenzo[d]thiazol-2-yl)-4,5,6,7-tetrahydro-1H-imidazo[4,5-c]pyridine-5-carbonyl)pyrazolo[1,5-a]pyridine-5-carbonitrile] | 0.5 to 1
N#Cc1ccn2ncc(C(=O)N3CCc4[nH]cnc4[C@@H]3c3nc4c(F)cccc4s3)c2c1 [Example 1250, (R)-3-(4-(4-fluorobenzo[d]thiazol-2-yl)-4,5,6,7-tetrahydro-1H-imidazo[4,5-c]pyridine-5-carbonyl)pyrazolo[1,5-a]pyridine-5-carbonitrile] | 1 to 5
Cc1nnc(C(=O)N2CCc3[nH]cnc3[C@@H]2c2nc3c(F)cccc3s2)s1 [Example 1251, (R)-(4-(4-fluorobenzo[d]thiazol-2-yl)-6,7-dihydro-1H-imidazo[4,5-c]pyridin-5(4H)-yl)(5-methyl-1,3,4-thiadiazol-2-yl)methanone] | > 5
Cc1nnc(C(=O)N2CCc3[nH]cnc3[C@H]2c2nc3c(F)cccc3s2)s1 [Example 1252, (S)-(4-(4-fluorobenzo[d]thiazol-2-yl)-6,7-dihydro-1H-imidazo[4,5-c]pyridin-5(4H)-yl)(5-methyl-1,3,4-thiadiazol-2-yl)methanone] | 1 to 5
O=C(N1CCc2[nH]cnc2[C@H]1c1nc2ccccc2s1)C(F)(F)C1CC1 [Example 1253] | 0.5 to 1
O=C(N1CCc2[nH]cnc2[C@@H]1c1nc2ccccc2s1)C(F)(F)C1CC1 [Example 1254, (R)-1-(4-(benzo[d]thiazol-2-yl)-6,7-dihydro-1H-imidazo[4,5-c]pyridin-5(4H)-yl)-2-cyclopropyl-2,2-difluoroethanone] | > 5
O=C(N1CCc2[nH]cnc2[C@H]1c1nc2ccccc2s1)C1(CF)CC1 [Example 1255] | 0.5 to 1
O=C(N1CCc2[nH]cnc2[C@@H]1c1nc2ccccc2s1)C1(CF)CC1 [Example 1256, (R)-(4-(benzo[d]thiazol-2-yl)-6,7-dihydro-1H-imidazo[4,5-c]pyridin-5(4H)-yl)(1-(fluoromethyl)cyclopropyl)methanone] | > 5
O=C(CC1CC1)N1CCc2[nH]cnc2[C@H]1c1nc2cccc(F)c2s1 [Example 1257, (S)-2-cyclopropyl-1-(4-(7-fluorobenzo[d]thiazol-2-yl)-6,7-dihydro-1H-imidazo[4,5-c]pyridin-5(4H)-yl)ethanone] | < 0.5

SMILES | AC50 [µM]
O=C(CC1CC1)N1CCc2[nH]cnc2[C@@H]1c1nc2cccc(F)c2s1 [Example 1258, (R)-2-cyclopropyl-1-(4-(7-fluorobenzo[d]thiazol-2-yl)-6,7-dihydro-1H-imidazo[4,5-c]pyridin-5(4H)-yl)ethanone] | 0.5 to 1
O=C(C1CC1)N1CCc2[nH]cnc2[C@H]1c1nc2cccc(F)c2s1 [Example 1259, (S)-cyclopropyl(4-(7-fluorobenzo[d]thiazol-2-yl)-6,7-dihydro-1H-imidazo[4,5-c]pyridin-5(4H)-yl)methanone] | 0.5 to 1
O=C(C1CC1)N1CCc2[nH]cnc2[C@@H]1c1nc2cccc(F)c2s1 [Example 1260, (R)-cyclopropyl(4-(7-fluorobenzo[d]thiazol-2-yl)-6,7-dihydro-1H-imidazo[4,5-c]pyridin-5(4H)-yl)methanone] | > 5
O=C(c1ncc(Cl)s1)N1CCc2[nH]cnc2[C@H]1c1nc2cc(F)ccc2s1 [Example 1261] | 1 to 5
O=C(c1ncc(Cl)s1)N1CCc2[nH]cnc2[C@@H]1c1nc2cc(F)ccc2s1 [Example 1262, (R)-(5-chlorothiazol-2-yl)(4-(5-fluorobenzo[d]thiazol-2-yl)-6,7-dihydro-1H-imidazo[4,5-c]pyridin-5(4H)-yl)methanone] | 1 to 5
O=C(c1nc(Cl)cs1)N1CCc2[nH]cnc2[C@H]1c1nc2cccc(F)c2s1 [Example 1263] | 1 to 5
O=C(c1nc(Cl)cs1)N1CCc2[nH]cnc2[C@@H]1c1nc2cccc(F)c2s1 [Example 1264, (R)-(4-chlorothiazol-2-yl)(4-(7-fluorobenzo[d]thiazol-2-yl)-6,7-dihydro-1H-imidazo[4,5-c]pyridin-5(4H)-yl)methanone] | 1 to 5
O=C(c1nncs1)N1CCc2[nH]cnc2[C@@H]1c1nc2cccc(F)c2s1 [Example 1265, (R)-(4-(7-fluorobenzo[d]thiazol-2-yl)-6,7-dihydro-1H-imidazo[4,5-c]pyridin-5(4H)-yl)(1,3,4-thiadiazol-2-yl)methanone] | 1 to 5
O=C(c1nncs1)N1CCc2[nH]cnc2[C@H]1c1nc2cccc(F)c2s1 [Example 1266, (S)-(4-(7-fluorobenzo[d]thiazol-2-yl)-6,7-dihydro-1H-imidazo[4,5-c]pyridin-5(4H)-yl)(1,3,4-thiadiazol-2-yl)methanone] | < 0.5
O=C(c1ncn2ccccc12)N1CCc2[nH]cnc2[C@@H]1c1nc2cccc(F)c2s1 [Example 1267, (R)-(4-(7-fluorobenzo[d]thiazol-2-yl)-6,7-dihydro-1H-imidazo[4,5-c]pyridin-5(4H)-yl)(imidazo[1,5-a]pyridin-1-yl)methanone] | 1 to 5
O=C(c1ncn2ccccc12)N1CCc2[nH]cnc2[C@H]1c1nc2cccc(F)c2s1 [Example 1268, (S)-(4-(7-fluorobenzo[d]thiazol-2-yl)-6,7-dihydro-1H-imidazo[4,5-c]pyridin-5(4H)-yl)(imidazo[1,5-a]pyridin-1-yl)methanone] | < 0.5
O=C(c1nncs1)N1CCc2[nH]cnc2[C@@H]1c1nc2c(F)cccc2s1 [Example 1269, (R)-(4-(4-fluorobenzo[d]thiazol-2-yl)-6,7-dihydro-1H-imidazo[4,5-c]pyridin-5(4H)-yl)(1,3,4-thiadiazol-2-yl)methanone] | 1 to 5
O=C(c1nncs1)N1CCc2[nH]cnc2[C@H]1c1nc2c(F)cccc2s1 [Example 1270, (S)-(4-(4-fluorobenzo[d]thiazol-2-yl)-6,7-dihydro-1H-imidazo[4,5-c]pyridin-5(4H)-yl)(1,3,4-thiadiazol-2-yl)methanone] | 0.5 to 1
O=C(CC1CC1(F)F)N1CCc2[nH]cnc2[C@@H]1c1nc2ccccc2s1 (stereo partly drawn) [Example 1272, 1-((R)-4-(benzo[d]thiazol-2-yl)-6,7-dihydro-1H-imidazo[4,5-c]pyridin-5(4H)-yl)-2-(2,2-difluorocyclopropyl)ethenone] | > 5
O=C(CC1CC1(F)F)N1CCc2[nH]cnc2[C@@H]1c1nc2ccccc2s1 (stereo partly drawn) [Example 1273, 1-((R)-4-(benzo[d]thiazol-2-yl)-6,7-dihydro-1H-imidazo[4,5-c]pyridin-5(4H)-yl)-2-(2,2-difluorocyclopropyl)ethanone] | > 5
c1ccc2sc([C@H]3c4nc[nH]c4CCN3CCC3CC3)nc2c1 [Example 1275, (R)-2-(5-(2-cyclopropylethyl)-4,5,6,7-tetrahydro-1H-imidazo[4,5-c]pyridin-4-yl)benzo[d]thiazole] | 1 to 5
c1ccc2sc([C@@H]3c4nc[nH]c4CCN3CCC3CC3)nc2c1 [Example 1276, (S)-2-(5-(2-cyclopropylethyl)-4,5,6,7-tetrahydro-1H-imidazo[4,5-c]pyridin-4-yl)benzo[d]thiazole] | < 0.5
